Peptide text beside a SMILES is read from it.
Tested on: RAW264.7 cells
Assay: CCK-8 cytotoxicity evaluation
Format: cell-based
Details: CCK-8 activity at 450 nm, after 3 days, FIG. 3
Procedure: Then, after 3 days, CCK-8 (Dojindo, CCK-8 kit) solution was added to 1/10 volume of the culture medium, diluted, and incubated for 2 hours. Thereafter, the culture medium was sampled and CCK-8 activity was confirmed at a wavelength of 450 nm using a microplate reader.

## CC[C@H](C)[C@H](N)C(=O)N[C@H](C(=O)N[C@@H](C)C(=O)N1CCC[C@H]1C(=O)N[C@H](C(=O)NCC(=O)N[C@@H](Cc1ccc(O)cc1)C(=O)N[C@@H](Cc1ccc(O)cc1)C(=O)NCC(=O)N[C@@H](CC(N)=O)C(=O)O)[C@@H](C)O)[C@@H](C)CC [Peptide-2, IIAPTGYYGN] (H-IIAPTGYYGN-OH)
  cytotoxicity: did not exhibit cytotoxicity

Reference: patent publication EP4631960A1, “PEPTIDE HAVING INHIBITORY ACTIVITY AGAINST OSTEOCLAST DIFFERENTIATION, AND USE THEREOF” (Caregen Co., Ltd., priority 2022, dated 2024)
